Bounds are passed on as bounds.

EC50 data for 32 molecules are collected here from patent US6908935B2, “Calcium receptor modulating agents” (Amgen Inc., priority 2002, dated 2005).

This assay addresses T1, human parathyroid cell Ca^2+ receptor (hPCaR) (Homo sapiens, UniProt P41180).
T1 construct: expressed in transfected cells
T1 sequence (P41180 20-1078): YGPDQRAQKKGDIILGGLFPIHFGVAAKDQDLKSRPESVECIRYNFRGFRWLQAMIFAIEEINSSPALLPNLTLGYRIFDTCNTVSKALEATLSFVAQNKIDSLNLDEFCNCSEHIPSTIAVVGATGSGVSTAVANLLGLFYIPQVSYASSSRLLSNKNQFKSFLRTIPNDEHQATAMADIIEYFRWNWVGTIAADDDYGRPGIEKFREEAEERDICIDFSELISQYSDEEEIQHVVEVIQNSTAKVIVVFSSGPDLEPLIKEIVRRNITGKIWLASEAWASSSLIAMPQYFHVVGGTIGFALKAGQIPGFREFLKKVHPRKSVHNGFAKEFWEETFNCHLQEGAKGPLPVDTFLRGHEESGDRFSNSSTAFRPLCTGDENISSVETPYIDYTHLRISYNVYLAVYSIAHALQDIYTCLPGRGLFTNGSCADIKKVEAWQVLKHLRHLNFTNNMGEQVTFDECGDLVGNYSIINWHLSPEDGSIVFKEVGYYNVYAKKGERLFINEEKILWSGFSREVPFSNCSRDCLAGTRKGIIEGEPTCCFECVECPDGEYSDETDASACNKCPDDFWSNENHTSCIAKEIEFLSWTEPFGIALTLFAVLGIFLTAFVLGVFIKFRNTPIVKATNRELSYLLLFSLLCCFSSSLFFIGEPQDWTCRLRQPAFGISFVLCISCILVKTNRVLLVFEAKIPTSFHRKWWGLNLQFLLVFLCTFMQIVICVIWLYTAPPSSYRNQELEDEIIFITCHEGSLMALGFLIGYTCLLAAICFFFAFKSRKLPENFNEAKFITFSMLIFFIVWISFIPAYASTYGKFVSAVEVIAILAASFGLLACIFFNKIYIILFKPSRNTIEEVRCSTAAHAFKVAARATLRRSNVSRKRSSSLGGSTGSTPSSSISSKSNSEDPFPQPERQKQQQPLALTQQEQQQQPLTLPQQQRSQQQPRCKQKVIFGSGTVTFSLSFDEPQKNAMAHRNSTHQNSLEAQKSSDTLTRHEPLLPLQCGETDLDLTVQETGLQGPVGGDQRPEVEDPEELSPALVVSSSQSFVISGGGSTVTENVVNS
Briefly: [Ca2+]i measurement with fluo-3 in HEK 293 4.0-7 cells stably transfected with hPCaR. The format is cell-based. Particulars: fluo-3 fluorescence (485/530 nm), effect on [Ca^2+]i. Put shortly:
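Cytosolic [Ca2+] was read as fluo-3 fluorescence (ex 485/em 530 nm) after compound addition to washed cells. Cells were hPCaR-transfected HEK 293 clone 7, dye-loaded 30 min at 37 °C with 2 μM fluo-3 acetoxymethyl ester in HEPES-buffered saline pH 7.45 containing 1 mM CaCl2 and 0.5% BSA.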
`COc1cccc([C@@H](C)NCc2ccc(OC)c(-c3ccc4c(ccn4CC4CC4)c3)c2)c1` [(1R)-N-((3-(1-(cyclopropylmethyl)-1H-indol-5-yl)-4-(methyloxy)phenyl)methyl)-1-(3-(methyloxy)phenyl)ethanamine] had an EC50 of at most 10 µM.

Molecule `COc1ccc(CN[C@H](C)c2ccccc2)cc1-c1ccc2c(ccn2CC2CC2)c1` [(1R)-N-((3-(1-(cyclopropylmethyl)-1H-indol-5-yl)-4-(methyloxy)phenyl)methyl)-1-phenylethanamine] showed an EC50 of at most 10 µM. The molecule `COc1ccc(CN[C@H](C)c2cccc3ccccc23)cc1C1CCN(C(C)=O)CC1` [(1R)-N-((3-(1-acetyl-4-piperidinyl)-4-(methyloxy)phenyl)methyl)-1-(1-naphthalenyl)ethanamine] had an EC50 of at most 10 µM. For `COc1ccc(CN[C@H](C)c2cccc3ccccc23)cc1-c1csc2ccccc12` [(1R)-N-((3-(1-benzothien-3-yl)-4-(methyloxy)phenyl)methyl)-1-(1-naphthalenyl)ethanamine], the EC50 was at most 10 µM. In turn, `COc1ccc(CN[C@H](C)c2ccccc2)cc1-c1csc2ccccc12` [(1R)-N-((3-(1-benzothien-3-yl)-4-(methyloxy)phenyl)methyl)-1-phenylethanamine] returned an EC50 of at most 10 µM.

`COc1ccc(CN[C@H](C)c2cccc3ccccc23)cc1-c1nc2ccccc2n1C` [(1R)-N-((3-(1-methyl-1H-benzimidazol-2-yl)-4-(methyloxy)phenyl)methyl)-1-(1-naphthalenyl)ethanamine] showed an EC50 of at most 10 µM. The same measure for `COc1ccc(CN[C@H](C)c2cccc3ccccc23)cc1-c1ccc2c(c1)ncn2C` [(1R)-N-((3-(1-methyl-1H-benzimidazol-5-yl)-4-(methyloxy)phenyl)methyl)-1-(1-naphthalenyl)ethanamine]: at most 10 µM. As for `COc1cccc([C@@H](C)NCc2ccc(OC)c(-c3ccc4c(c3)ncn4C)c2)c1` [(1R)-N-((3-(1-methyl-1H-benzimidazol-5-yl)-4-(methyloxy)phenyl)methyl)-1-(3-(methyloxy)phenyl)ethanamine], the figure is at most 10 µM; as for `COc1ccc(CN[C@H](C)c2ccccc2)cc1-c1ccc2c(c1)ncn2C` [(1R)-N-((3-(1-methyl-1H-benzimidazol-5-yl)-4-(methyloxy)phenyl)methyl)-1-phenylethanamine], at most 10 µM. As for `COc1ccc(CN[C@H](C)c2cccc3ccccc23)cc1-c1cn(C)cn1` [(1R)-N-((3-(1-methyl-1H-imidazol-4-yl)-4-(methyloxy)phenyl)methyl)-1-(1-naphthalenyl)ethanamine], the figure is at most 10 µM; as for `COc1ccc(CN[C@H](C)c2ccccc2)cc1-c1cn(C)cn1` [(1R)-N-((3-(1-methyl-1H-imidazol-4-yl)-4-(methyloxy)phenyl)methyl)-1-phenylethanamine], at most 10 µM; as for `COc1ccc(CN[C@H](C)c2cccc3ccccc23)cc1-c1ccc2c(cnn2C)c1` [(1R)-N-((3-(1-methyl-1H-indazol-5-yl)-4-(methyloxy)phenyl)methyl)-1-(1-naphthalenyl)ethanamine], at most 10 µM. In turn, `COc1ccc(CN[C@H](C)c2ccccc2)cc1-c1ccc2c(cnn2C)c1` [(1R)-N-((3-(1-methyl-1H-indazol-5-yl)-4-(methyloxy)phenyl)methyl)-1-phenylethanamine] displayed an EC50 of at most 10 µM. Consider `COc1ccc(CN[C@H](C)c2cccc3ccccc23)cc1-c1ccc2ccn(C)c2c1` [(1R)-N-((3-(1-methyl-1H-indol-6-yl)-4-(methyloxy)phenyl)methyl)-1-(1-naphthalenyl)ethanamine], for which the concentration giving a half-maximal response (EC50) is at most 10 µM. The same measure for `COc1cccc([C@@H](C)NCc2ccc(OC)c(-c3ccc4ccn(C)c4c3)c2)c1` [(1R)-N-((3-(1-methyl-1H-indol-6-yl)-4-(methyloxy)phenyl)methyl)-1-(3-(methyloxy)phenyl)ethanamine]: at most 10 µM; for `COc1ccc(CN[C@H](C)c2ccccc2)cc1-c1ccc2ccn(C)c2c1` [(1R)-N-((3-(1-methyl-1H-indol-6-yl)-4-(methyloxy)phenyl)methyl)-1-phenylethanamine]: at most 10 µM.

In turn, `COc1ccc(CN[C@H](C)c2ccc3ccccc3c2)cc1-c1ccc2[nH]ccc2c1` [(1R)-N-((3-(1H-indol-5-yl)-4-(methyloxy)phenyl)methyl)-1-(2-naphthalenyl)ethanamine] returned an EC50 of at most 10 µM.

On to `COc1cccc([C@@H](C)NCc2ccc(OC)c(-c3ccc4[nH]ccc4c3)c2)c1` [(1R)-N-((3-(1H-indol-5-yl)-4-(methyloxy)phenyl)methyl)-1-(3-(methyloxy)phenyl)ethanamine], for which the EC50 is at most 10 µM. As for `COc1ccc([C@@H](C)NCc2ccc(OC)c(-c3ccc4[nH]ccc4c3)c2)cc1` [(1R)-N-((3-(1H-indol-5-yl)-4-(methyloxy)phenyl)methyl)-1-(4-(methyloxy)phenyl)ethanamine], the figure is at most 10 µM. In the case of `COc1cccc([C@@H](C)NCc2ccc(OC)c(-c3ccc4nsnc4c3)c2)c1` [(1R)-N-((3-(2,1,3-benzothiadiazol-5-yl)-4-(methyloxy)phenyl)methyl)-1-(3-(methyloxy)phenyl)ethanamine], the EC50 is at most 10 µM. Take `COc1ccc(CN[C@H](C)c2ccccc2)cc1-c1ccc2nsnc2c1` [(1R)-N-((3-(2,1,3-benzothiadiazol-5-yl)-4-(methyloxy)phenyl)methyl)-1-phenylethanamine]: the EC50 was at most 10 µM. Molecule `COc1ccc(CN[C@H](C)c2cccc3ccccc23)cc1-c1ccc2nonc2c1` [(1R)-N-((3-(2,1,3-benzoxadiazol-5-yl)-4-(methyloxy)phenyl)methyl)-1-(1-naphthalenyl)ethanamine] yielded an EC50 of at most 10 µM. The molecule `COc1cccc([C@@H](C)NCc2ccc(OC)c(-c3ccc4nonc4c3)c2)c1` [(1R)-N-((3-(2,1,3-benzoxadiazol-5-yl)-4-(methyloxy)phenyl)methyl)-1-(3-(methyloxy)phenyl)ethanamine] gave an EC50 of at most 10 µM. The same measure for `COc1ccc(CN[C@H](C)c2ccccc2)cc1-c1ccc2nonc2c1` [(1R)-N-((3-(2,1,3-benzoxadiazol-5-yl)-4-(methyloxy)phenyl)methyl)-1-phenylethanamine]: at most 10 µM; for `COc1ccc(CN[C@H](C)c2cccc3ccccc23)cc1-c1ccc2c(c1)OC(F)(F)O2` [(1R)-N-((3-(2,2-difluoro-1,3-benzodioxol-5-yl)-4-(methyloxy)phenyl)methyl)-1-(1-naphthalenyl)ethanamine]: at most 10 µM; for `COc1cccc([C@@H](C)NCc2ccc(OC)c(-c3ccc4c(c3)OC(F)(F)O4)c2)c1` [(1R)-N-((3-(2,2-difluoro-1,3-benzodioxol-5-yl)-4-(methyloxy)phenyl)methyl)-1-(3-(methyloxy)phenyl)ethanamine]: at most 10 µM.

Regarding `COc1ccc(CN[C@H](C)c2ccccc2)cc1-c1ccc2c(c1)OC(F)(F)O2` [(1R)-N-((3-(2,2-difluoro-1,3-benzodioxol-5-yl)-4-(methyloxy)phenyl)methyl)-1-phenylethanamine], the EC50 was at most 10 µM. With `COc1ccc(CN[C@H](C)c2cccc3ccccc23)cc1-c1ccc2c(c1)CCO2` [(1R)-N-((3-(2,3-dihydro-1-benzofuran-5-yl)-4-(methyloxy)phenyl)methyl)-1-(1-naphthalenyl)ethanamine], the EC50 is at most 10 µM. As to `COc1cccc([C@@H](C)NCc2ccc(OC)c(-c3ccc4c(c3)CCO4)c2)c1` [(1R)-N-((3-(2,3-dihydro-1-benzofuran-5-yl)-4-(methyloxy)phenyl)methyl)-1-(3-(methyloxy)phenyl)ethanamine], the EC50 is at most 10 µM. As for `COc1ccc(CN[C@H](C)c2ccccc2)cc1-c1ccc2c(c1)CCO2` [(1R)-N-((3-(2,3-dihydro-1-benzofuran-5-yl)-4-(methyloxy)phenyl)methyl)-1-phenylethanamine], the figure is at most 10 µM. The same measure for `CCn1nc2ccc(-c3cc(CN[C@H](C)c4ccccc4)ccc3OC)cc2n1` [(1R)-N-((3-(2-ethyl-2H-1,2,3-benzotriazol-5-yl)-4-(methyloxy)phenyl)methyl)-1-phenylethanamine]: at most 10 µM; for `COc1ccc(CN[C@H](C)c2ccccc2)cc1-c1cccnc1F` [(1R)-N-((3-(2-fluoro-3-pyridinyl)-4-(methyloxy)phenyl)methyl)-1-phenylethanamine]: at most 10 µM.

What is called EC50 is the concentration giving half of the maximal effect. High values mean a need for much substance, low ones an effect from little substance.
